Legend:
[1] = Crystal
[2] = Molar enthalpy of transition or fusion; settings: Crystal
[3] = molar heat capacity at saturation pressure

CCCCCO [pentan-1-ol]
Settings | Molar enthalpy of transition or fusion [kJ/mol] | Triple point temperature [K]
[1] | – | 195.6
[2] | 10.51 | –

[3]
Settings | molar heat capacity [J/K/mol]
84.35 K, Crystal | 65.89
85.06 K, Crystal | 66.25
86.86 K, Crystal | 67.27
89.74 K, Crystal | 68.87
92.58 K, Crystal | 70.39
94.72 K, Crystal | 71.43
95.39 K, Crystal | 71.74
95.42 K, Crystal | 71.88
97.19 K, Crystal | 72.64
98.27 K, Crystal | 73.33
100.1 K, Crystal | 74.14
101.12 K, Crystal | 74.67
102.99 K, Crystal | 75.73
103.99 K, Crystal | 76.36
105.87 K, Crystal | 77.16
106.86 K, Crystal | 77.84
108.76 K, Crystal | 78.64
109.74 K, Crystal | 79.23
111.65 K, Crystal | 79.96
112.62 K, Crystal | 80.53
114.54 K, Crystal | 81.27
115.51 K, Crystal | 81.81
117.45 K, Crystal | 82.55
118.41 K, Crystal | 83.11
120.35 K, Crystal | 83.59
121.31 K, Crystal | 84.26
123.26 K, Crystal | 85.21
124.22 K, Crystal | 85.78
126.17 K, Crystal | 86.52
127.13 K, Crystal | 87.05
129.09 K, Crystal | 87.81
130.04 K, Crystal | 88.35
132 K, Crystal | 89.11
132.96 K, Crystal | 89.63
134.92 K, Crystal | 90.35
135.88 K, Crystal | 90.9
137.85 K, Crystal | 91.65
138.8 K, Crystal | 92.19
140.77 K, Crystal | 92.89
141.73 K, Crystal | 93.48
143.7 K, Crystal | 94.19
144.65 K, Crystal | 94.77
146.63 K, Crystal | 95.55
147.58 K, Crystal | 96.12
149.56 K, Crystal | 96.87
150.51 K, Crystal | 97.45
152.49 K, Crystal | 98.21
153.44 K, Crystal | 98.8
155.42 K, Crystal | 99.58
156.38 K, Crystal | 100.2
158.36 K, Crystal | 101.02
159.31 K, Crystal | 101.61
161.29 K, Crystal | 102.48
162.24 K, Crystal | 103.05
164.23 K, Crystal | 103.98
165.18 K, Crystal | 104.56
167.16 K, Crystal | 105.55
168.11 K, Crystal | 106.11
170.08 K, Crystal | 107.17
171.04 K, Crystal | 107.72
173.01 K, Crystal | 108.87
173.97 K, Crystal | 109.43
175.94 K, Crystal | 110.7
176.89 K, Crystal | 111.3
178.85 K, Crystal | 112.7
179.8 K, Crystal | 113.33
181.73 K, Crystal | 115.01
182.67 K, Crystal | 115.64
184.57 K, Crystal | 118.07
185.5 K, Crystal | 118.77
187.36 K, Crystal | 123.84
188.28 K, Crystal | 124.56
198.65 K, Liquid | 163.65
199.38 K, Liquid | 163.9
200.99 K, Liquid | 163.99
201.72 K, Liquid | 164.4
203.32 K, Liquid | 164.43
204.05 K, Liquid | 164.85
205.65 K, Liquid | 164.91
206.37 K, Liquid | 165.31
207.96 K, Liquid | 165.4
208.68 K, Liquid | 165.79
210.27 K, Liquid | 165.93
210.99 K, Liquid | 166.35
212.58 K, Liquid | 166.46
213.29 K, Liquid | 166.86
214.87 K, Liquid | 167.08
215.58 K, Liquid | 167.46
217.16 K, Liquid | 167.65
217.86 K, Liquid | 168.06
219.44 K, Liquid | 168.24
220.14 K, Liquid | 168.68
221.71 K, Liquid | 168.88
222.41 K, Liquid | 169.28
223.98 K, Liquid | 169.49
224.67 K, Liquid | 169.98
226.24 K, Liquid | 170.19
226.92 K, Liquid | 170.74
228.49 K, Liquid | 170.97
229.17 K, Liquid | 171.45
230.73 K, Liquid | 171.69
231.4 K, Liquid | 172.08
232.96 K, Liquid | 172.37
233.63 K, Liquid | 172.91
235.19 K, Liquid | 173.18
235.85 K, Liquid | 173.67
237.41 K, Liquid | 174
238.06 K, Liquid | 174.45
239.61 K, Liquid | 174.8
240.27 K, Liquid | 175.24
241.81 K, Liquid | 175.57
242.46 K, Liquid | 176.08
244 K, Liquid | 176.53
244.65 K, Liquid | 177.02
246.19 K, Liquid | 177.41
246.83 K, Liquid | 177.9
248.36 K, Liquid | 178.37
249 K, Liquid | 178.81
250.53 K, Liquid | 179.33
251.16 K, Liquid | 179.81
252.69 K, Liquid | 180.35
253.31 K, Liquid | 180.73
254.84 K, Liquid | 180.78
255.46 K, Liquid | 181.29
256.98 K, Liquid | 181.89
257.6 K, Liquid | 182.33
259.12 K, Liquid | 182.97
259.72 K, Liquid | 183.42
261.25 K, Liquid | 184.11
261.84 K, Liquid | 184.56
263.36 K, Liquid | 185.17
263.95 K, Liquid | 185.84
265.47 K, Liquid | 186.38
266.05 K, Liquid | 186.93
267.57 K, Liquid | 187.55
268.14 K, Liquid | 188.12
269.66 K, Liquid | 188.85
270.23 K, Liquid | 189.24
271.74 K, Liquid | 190.03
272.3 K, Liquid | 190.52
273.81 K, Liquid | 190.93
274.36 K, Liquid | 191.79
275.87 K, Liquid | 192.5
276.41 K, Liquid | 193.06
277.92 K, Liquid | 193.85
278.46 K, Liquid | 194.4
279.97 K, Liquid | 195.18
280.49 K, Liquid | 195.74
282 K, Liquid | 196.61
282.51 K, Liquid | 197.04
284.02 K, Liquid | 197.96
284.53 K, Liquid | 198.45
286.03 K, Liquid | 199.37
286.53 K, Liquid | 199.91
288.04 K, Liquid | 200.78
288.52 K, Liquid | 201.35
290.03 K, Liquid | 202.3
290.5 K, Liquid | 202.81
292.01 K, Liquid | 203.82
292.48 K, Liquid | 204.11
293.99 K, Liquid | 205.24
294.44 K, Liquid | 205.79
295.95 K, Liquid | 206.87
296.39 K, Liquid | 207.42
297.91 K, Liquid | 208.52
298.34 K, Liquid | 208.88
299.85 K, Liquid | 210.01
300.27 K, Liquid | 210.28
300.3 K, Liquid | 209.4
300.6 K, Liquid | 209.89
300.81 K, Liquid | 210.54
301.09 K, Liquid | 210.46
301.72 K, Liquid | 211.03
302.2 K, Liquid | 211.81
303.67 K, Liquid | 212.74
304.12 K, Liquid | 213.39
305.6 K, Liquid | 214.44
306.03 K, Liquid | 215.06
307.52 K, Liquid | 216.02
307.94 K, Liquid | 216.66
309.43 K, Liquid | 217.84
309.83 K, Liquid | 218.39
311.32 K, Liquid | 219.47
311.72 K, Liquid | 219.98
313.21 K, Liquid | 221.03
313.59 K, Liquid | 221.54
315.09 K, Liquid | 222.83
315.46 K, Liquid | 223.3
316.96 K, Liquid | 224.55
317.31 K, Liquid | 224.93
318.82 K, Liquid | 226.26
319.16 K, Liquid | 226.53
320.67 K, Liquid | 228
320.99 K, Liquid | 228.31
322.52 K, Liquid | 229.67
322.82 K, Liquid | 229.96
324.36 K, Liquid | 231.42
324.65 K, Liquid | 231.73
326.19 K, Liquid | 233.09
326.46 K, Liquid | 233.41
328.01 K, Liquid | 234.81
328.27 K, Liquid | 235
329.82 K, Liquid | 236.6
330.07 K, Liquid | 236.82
331.62 K, Liquid | 238.27
331.85 K, Liquid | 238.73
333.42 K, Liquid | 239.94
333.63 K, Liquid | 240.3
335.2 K, Liquid | 241.58
335.4 K, Liquid | 241.97
336.98 K, Liquid | 243.24
337.16 K, Liquid | 243.65
338.75 K, Liquid | 244.92
338.92 K, Liquid | 245.3
340.51 K, Liquid | 246.6
340.66 K, Liquid | 246.9
342.27 K, Liquid | 248.02
342.4 K, Liquid | 248.57
344.02 K, Liquid | 249.71
344.13 K, Liquid | 250.3
345.76 K, Liquid | 251.26
345.85 K, Liquid | 252.05
347.5 K, Liquid | 252.83
347.57 K, Liquid | 253.58
349.23 K, Liquid | 254.25
349.27 K, Liquid | 255.13
350.95 K, Liquid | 255.52
350.97 K, Liquid | 256.62
352.66 K, Liquid | 258.17
352.67 K, Liquid | 256.89
354.35 K, Liquid | 259.96
354.38 K, Liquid | 259.82
356.02 K, Liquid | 261.44
356.07 K, Liquid | 261.38
357.7 K, Liquid | 262.72
357.76 K, Liquid | 262.85
359.36 K, Liquid | 264.29
359.43 K, Liquid | 264.36
361.02 K, Liquid | 265.62
361.1 K, Liquid | 265.85
362.67 K, Liquid | 266.89
362.77 K, Liquid | 267.17
364.32 K, Liquid | 268.43
364.43 K, Liquid | 268.78
365.96 K, Liquid | 269.86
366.08 K, Liquid | 270.13
367.59 K, Liquid | 270.92
367.73 K, Liquid | 271.33
369.23 K, Liquid | 271.93
369.37 K, Liquid | 272.76
370.86 K, Liquid | 272.95
371.01 K, Liquid | 274.05
372.64 K, Liquid | 275.14
374.27 K, Liquid | 276.38
375.89 K, Liquid | 277.43
377.52 K, Liquid | 278.66
379.14 K, Liquid | 279.32
380.76 K, Liquid | 280.36

CCCO [propan-1-ol]
Settings | Molar enthalpy of transition or fusion [kJ/mol] | Triple point temperature [K]
[1] | – | 148.71
[2] | 5.4 | –

[3], Glass
Settings | molar heat capacity [J/K/mol]
84.71 K | 55.24
86.52 K | 56.57
89.38 K | 58.64
92.19 K | 61.1
94.96 K | 66.41

Reference: the NIST ThermoML archive (doi:10.1021/je0499768)
